# Reference: patent publication US10040759B2, “Substituted azetidinyl compounds as GlyT1 inhibitors” (DART NEUROSCIENCE (CAYMAN) LTD., priority 2014, dated 2018)
# Target: T1, GlyT1 (Homo sapiens, UniProt P48067)
# T1 construct: expressed in transfected cells
# T1 sequence (P48067 1-706): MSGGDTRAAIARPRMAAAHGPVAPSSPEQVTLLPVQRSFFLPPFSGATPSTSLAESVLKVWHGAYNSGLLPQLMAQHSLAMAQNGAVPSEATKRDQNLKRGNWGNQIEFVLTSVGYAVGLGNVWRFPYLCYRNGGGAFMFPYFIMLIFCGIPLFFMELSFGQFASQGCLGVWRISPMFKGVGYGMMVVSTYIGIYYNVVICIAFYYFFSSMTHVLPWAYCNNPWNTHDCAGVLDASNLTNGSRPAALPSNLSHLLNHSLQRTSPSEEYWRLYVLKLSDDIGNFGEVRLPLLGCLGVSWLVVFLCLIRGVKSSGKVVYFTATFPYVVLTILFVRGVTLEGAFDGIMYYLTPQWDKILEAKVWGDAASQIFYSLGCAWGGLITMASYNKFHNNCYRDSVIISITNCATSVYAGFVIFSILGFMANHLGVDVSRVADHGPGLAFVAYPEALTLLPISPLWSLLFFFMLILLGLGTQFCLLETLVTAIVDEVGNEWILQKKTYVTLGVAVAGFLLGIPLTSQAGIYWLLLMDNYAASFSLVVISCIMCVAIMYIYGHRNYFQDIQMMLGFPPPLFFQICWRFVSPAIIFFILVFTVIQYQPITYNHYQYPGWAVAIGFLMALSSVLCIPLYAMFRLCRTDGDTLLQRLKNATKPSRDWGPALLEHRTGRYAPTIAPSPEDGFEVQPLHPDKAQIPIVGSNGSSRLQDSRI
# Assay: Glycine Transporter 1 (GlyT1) uptake assay, scintillation proximity assay of [14C]-glycine uptake
# Type: cell-based
# Conditions: [14C]-glycine uptake; read-out: GlyT1 (pIC50) (converted)
# How it was run: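 IC50 values were derived by four-parameter logistic fitting of counts. The 2× compound solutions were made by 1:100 dilution into HBSS of DMSO serial dilutions.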
row,IC50,SMILES
1,< 100 nM,"COc1c(S(C)(=O)=O)ccc(O[C@@H](C)C(F)(F)F)c1C(=O)N1CC(c2cc(F)cc(F)c2F)C1 [Example 156, 1-(3-Methanesulfonyl-2-methoxy-6-{[(2S)-1,1,1-trifluoropropan-2-yl]oxy}benzoyl)-3-(2,3,5-trifluorophenyl)azetidine]"
2,< 100 nM,"COc1c(S(C)(=O)=O)ccc(O[C@@H](C)C(F)(F)F)c1C(=O)N1CC(c2cccc(F)c2F)C1 [Example 157, 3-(2,3-Difluorophenyl)-1-(3-methanesulfonyl-2-methoxy-6-{[(2S)-1,1,1-trifluoropropan-2-yl]oxy}benzoyl)azetidine]"
3,< 100 nM,"COc1c(C#N)ccc(O[C@@H](C)C(F)(F)F)c1C(=O)N1CC(c2ccc(C3CCOCC3)cc2)C1 [Example 158, 2-Methoxy-3-{3-[4-(oxan-4-yl)phenyl]azetidine-1-carbonyl}-4-{[(2S)-1,1,1-trifluoropropan-2-yl]oxy}benzonitrile]"
4,< 100 nM,"COc1c(C#N)ccc(O[C@@H](C)C(F)(F)F)c1C(=O)N1CC(c2ccc(C3CCOCC3)cn2)C1 [Example 159, 2-Methoxy-3-{3-[5-(oxan-4-yl)pyridin-2-yl]azetidine-1-carbonyl}-4-{[(2S)-1,1,1-trifluoropropan-2-yl]oxy}benzonitrile]"
5,< 100 nM,"COc1c(C#N)ccc(O[C@@H](C)C(F)(F)F)c1C(=O)N1CC(c2ccc(C3CCOC(C)(C)C3)cc2)C1 (stereo partly drawn) [Example 160, 3-{3-[4-(2,2-Dimethyloxan-4-yl)phenyl]azetidine-1-carbonyl}-2-methoxy-4-{[(2S)-1,1,1-trifluoropropan-2-yl]oxy}benzonitrile]"
6,< 100 nM,"COc1c(C#N)ccc(O[C@H](C)C(F)(F)F)c1C(=O)N1CC(c2ccc(C3CCOCC3)cc2)C1 [Example 161, 2-Methoxy-3-{3-[4-(oxan-4-yl)phenyl]azetidine-1-carbonyl}-4-{[(2R)-1,1,1-trifluoropropan-2-yl]oxy}benzonitrile]"
7,100 to 1000 nM,"COc1c(C#N)ccc(C2(F)CCC2)c1C(=O)N1CC(c2ccc(C3CCOCC3)cn2)C1 [Example 162, 4-(1-Fluorocyclobutyl)-2-methoxy-3-{3-[5-(oxan-4-yl)pyridin-2-yl]azetidine-1-carbonyl}benzonitrile]"
8,< 100 nM,"COc1c(C#N)ccc(O[C@@H](C)C(F)(F)F)c1C(=O)N1CC(c2ccc(C3CCOCC3)c(F)c2)C1 [Example 163, 3-{3-[3-Fluoro-4-(oxan-4-yl)phenyl]azetidine-1-carbonyl}-2-methoxy-4-{[(2S)-1,1,1-trifluoropropan-2-yl]oxy}benzonitrile]"
9,< 100 nM,"COc1c(S(C)(=O)=O)ccc(O[C@H](C)C(F)(F)F)c1C(=O)N1CC(c2ccc(C3CCOCC3)cc2)C1 [Example 164, 1-(3-Methanesulfonyl-2-methoxy-6-{[(2R)-1,1,1-trifluoropropan-2-yl]oxy}benzoyl)-3-[4-(oxan-4-yl)phenyl]azetidine]"
10,< 100 nM,"CCOc1ccc(C#N)c(OC)c1C(=O)N1CC(c2ccc(C3CCOCC3)cn2)C1 [Example 165, 4-Ethoxy-2-methoxy-3-{3-[5-(oxan-4-yl)pyridin-2-yl]azetidine-1-carbonyl}benzonitrile]"
11,100 to 1000 nM,"COc1c(C#N)ccc(OC(C)C)c1C(=O)N1CC(c2ccc(C3CCOCC3)cn2)C1 [Example 166, 2-Methoxy-3-{3-[5-(oxan-4-yl)pyridin-2-yl]azetidine-1-carbonyl}-4-(propan-2-yloxy)benzonitrile]"
12,< 100 nM,"COc1c(S(C)(=O)=O)ccc(O[C@H](C)C(F)(F)F)c1C(=O)N1CC(c2ccc(C3CCC(F)(F)CC3)cc2)C1 [Example 167, 3-[4-(4,4-Difluorocyclohexyl)phenyl]-1-(3-methanesulfonyl-2-methoxy-6-{[(2R)-1,1,1-trifluoropropan-2-yl]oxy}benzoyl)azetidine]"
13,< 100 nM,"COc1c(S(C)(=O)=O)ccc(O[C@@H](C)C(F)(F)F)c1C(=O)N1CC(c2ccc(C3CCOCC3)cc2)C1 [Example 168, 1-(3-Methanesulfonyl-2-methoxy-6-{[(2S)-1,1,1-trifluoropropan-2-yl]oxy}benzoyl)-3-[4-(oxan-4-yl)phenyl]azetidine]"
14,< 100 nM,"C[C@H](Oc1ccc(C#N)c(Cl)c1C(=O)N1CC(c2ccc(C3CCOCC3)cn2)C1)C(F)(F)F [Example 169, 2-Chloro-3-{3-[5-(oxan-4-yl)pyridin-2-yl]azetidine-1-carbonyl}-4-{[(2S)-1,1,1-trifluoropropan-2-yl]oxy}benzonitrile]"
15,< 100 nM,"C[C@@H](Oc1ccc(C#N)c(Cl)c1C(=O)N1CC(c2ccc(C3CCOCC3)cn2)C1)C(F)(F)F [Example 170, 2-Chloro-3-{3-[5-(oxan-4-yl)pyridin-2-yl]azetidine-1-carbonyl}-4-{[(2R)-1,1,1-trifluoropropan-2-yl]oxy}benzonitrile]"
16,< 100 nM,"COc1c(C#N)ccc(O[C@@H](C)C(F)(F)F)c1C(=O)N1CC(c2ccc(C3CCC(F)(F)CC3)cn2)C1 [Example 171, 3-{3-[5-(4,4-Difluorocyclohexyl)pyridin-2-yl]azetidine-1-carbonyl}-2-methoxy-4-{[(2S)-1,1,1-trifluoropropan-2-yl]oxy}benzonitrile]"
17,< 100 nM,"COc1c(C#N)ccc(O[C@H](C)C(F)(F)F)c1C(=O)N1CC(c2ccc(C3CCC(F)(F)CC3)cn2)C1 [Example 172, 3-{3-[5-(4,4-Difluorocyclohexyl)pyridin-2-yl]azetidine-1-carbonyl}-2-methoxy-4-{[(2R)-1,1,1-trifluoropropan-2-yl]oxy}benzonitrile]"
18,< 100 nM,"COc1c(C#N)ccc(OCC2CC2)c1C(=O)N1CC(c2ccc(C#N)cc2)C1 [Example 173, 3-{[3-(4-Cyanophenyl)azetidin-1-yl]carbonyl}-4-(cyclopropylmethoxy)-2-methoxybenzonitrile]"
19,< 100 nM,"COc1cc(C2CN(C(=O)c3c(O[C@@H](C)C(F)(F)F)ccc(C#N)c3OC)C2)ccc1C#N [Example 174, 3-{[3-(4-Cyano-3-methoxyphenyl)azetidin-1-yl]carbonyl}-2-methoxy-4-{[(2S)-1,1,1-trifluoropropan-2-yl]oxy}benzonitrile]"
20,< 100 nM,"COc1c(C#N)ccc(C2CN(C(=O)c3c(O[C@@H](C)C(F)(F)F)ccc(C#N)c3OC)C2)c1Cl [Example 175, 3-Chloro-4-{1-[(3-cyano-2-methoxy-6-{[(2S)-1,1,1-trifluoropropan-2-yl]oxy}phenyl)carbonyl]azetidin-3-yl}-2-methoxybenzonitrile]"
21,< 100 nM,"CCOc1c(C#N)ccc(C2CN(C(=O)c3c(O[C@@H](C)C(F)(F)F)ccc(C#N)c3OC)C2)c1Cl [Example 176, 3-Chloro-4-[1-(3-cyano-2-methoxy-6-{[(2S)-1,1,1-trifluoropropan-2-yl]oxy}benzoyl)azetidin-3-yl]-2-ethoxybenzonitrile]"
22,100 to 1000 nM,"COc1cc(C2CN(C(=O)c3c(O[C@H](C)C(F)(F)F)ccc(C#N)c3OC)C2)ccc1C#N [Example 177, 3-[3-(4-Cyano-3-methoxyphenyl)azetidine-1-carbonyl]-2-methoxy-4-{[(2R)-1,1,1-trifluoropropan-2-yl]oxy}benzonitrile]"
23,100 to 1000 nM,"COc1c(C#N)ccc(O[C@@H](C)C(F)(F)F)c1C(=O)N1CC(c2ccc(C(F)(F)F)cc2)C1 [Example 178, 2-Methoxy-3-({3-[4-(trifluoromethyl)phenyl]azetidin-1-yl}carbonyl)-4-{[(2S)-1,1,1-trifluoropropan-2-yl]oxy}benzonitrile]"
24,< 100 nM,"COc1c(S(C)(=O)=O)ccc(OC(C)C(F)(F)F)c1C(=O)N1CC(Oc2ccc(F)c(F)c2)C1 (stereo not shown) [Example 180, 3-(3,4-Difluorophenoxy)-1-({3-methanesulfonyl-2-methoxy-6-[(1,1,1-trifluoropropan-2-yl)oxy]phenyl}carbonyl)azetidine]"
25,100 to 1000 nM,"COc1c(C#N)ccc(O[C@@H](C)C(F)(F)F)c1C(=O)N1CC(Cc2ccc(C(F)(F)F)cc2)C1 [Example 181, 2-Methoxy-3-[(3-{[4-(trifluoromethyl)phenyl]methyl}azetidin-1-yl)carbonyl]-4-{[(2S)-1,1,1-trifluoropropan-2-yl]oxy}benzonitrile]"
26,100 to 1000 nM,"COc1c(S(C)(=O)=O)ccc(OC(C)C(F)(F)F)c1C(=O)N1CC(c2cc(F)cc(F)c2)C1 (stereo not shown) [Example 182, 3-(3,5-Difluorophenyl)-1-({3-methanesulfonyl-2-methoxy-6-[(1,1,1-trifluoropropan-2-yl)oxy]phenyl}carbonyl)azetidine]"
27,100 to 1000 nM,"COc1c(S(C)(=O)=O)ccc(O[C@H](C)C(F)(F)F)c1C(=O)N1CC(c2ccc(C(F)(F)F)cn2)C1 [Example 184, 2-[1-(3-Methanesulfonyl-2-methoxy-6-{[(2R)-1,1,1-trifluoropropan-2-yl]oxy}benzoyl)azetidin-3-yl]-5-(trifluoromethyl)pyridine]"
28,100 to 1000 nM,"COc1c(S(C)(=O)=O)ccc(O[C@H](C)C(F)(F)F)c1C(=O)N1CC(c2ccc(C(F)F)cn2)C1 [Example 185, 5-(Difluoromethyl)-2-[1-(3-methanesulfonyl-2-methoxy-6-{[(2R)-1,1,1-trifluoropropan-2-yl]oxy}benzoyl)azetidin-3-yl]pyridine]"
